In PubChem BioAssay (NCI):
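1) Cells in 96-well plates. 2) Compound, 48 h, 5 concentrations. 3) Linear interpolation between surrounding doses. 4) Unreached endpoint = highest concentration. The concentration for full growth arrest is given as TGI.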

How the values were obtained:
Experiment in all cases: NCI-60 cell line screen, 48 h
LXFL 529 NSCLC = test system: LXFL 529 NSCLC
SK-MEL-5 melanoma = test system: SK-MEL-5 melanoma
HCT-116 colon = test system: HCT-116 colon
K-562 leukemia = test system: K-562 leukemia
IGROV1 ovarian = test system: IGROV1 ovarian
UO-31 renal = test system: UO-31 renal
HCC-2998 colon = test system: HCC-2998 colon
SR leukemia = test system: SR leukemia
LOX IMVI melanoma = test system: LOX IMVI melanoma
SK-MEL-2 melanoma = test system: SK-MEL-2 melanoma
XF 498 CNS = test system: XF 498 CNS
COLO 205 colon = test system: COLO 205 colon
SNB-75 CNS = test system: SNB-75 CNS
UACC-257 melanoma = test system: UACC-257 melanoma
HOP-62 NSCLC = test system: HOP-62 NSCLC
DLD-1 colon = test system: DLD-1 colon
ACHN renal = test system: ACHN renal
RPMI-8226 leukemia = test system: RPMI-8226 leukemia
NCI-H522 lung = test system: NCI-H522 lung
CAKI-1 renal = test system: CAKI-1 renal
NCI-H226 lung = test system: NCI-H226 lung
OVCAR-4 ovarian = test system: OVCAR-4 ovarian
SNB-78 CNS = test system: SNB-78 CNS
UACC-62 melanoma = test system: UACC-62 melanoma
SNB-19 CNS = test system: SNB-19 CNS
SF-268 CNS = test system: SF-268 CNS
A549 NSCLC = test system: A549 NSCLC
A498 renal = test system: A498 renal
RXF 393 renal = test system: RXF 393 renal
SK-MEL-28 melanoma = test system: SK-MEL-28 melanoma
M19-MEL melanoma = test system: M19-MEL melanoma
OVCAR-8 ovarian = test system: OVCAR-8 ovarian
786-0 renal = test system: 786-0 renal
HOP-92 NSCLC = test system: HOP-92 NSCLC
NCI-H23 lung = test system: NCI-H23 lung
MALME-3M melanoma = test system: MALME-3M melanoma
OVCAR-3 ovarian = test system: OVCAR-3 ovarian
M14 melanoma = test system: M14 melanoma
U251 CNS = test system: U251 CNS
DMS 114 small cell lung = test system: DMS 114 small cell lung
HT29 colon = test system: HT29 colon
KM12 colon = test system: KM12 colon
SF-539 CNS = test system: SF-539 CNS
EKVX NSCLC = test system: EKVX NSCLC
KM20L2 colon = test system: KM20L2 colon
TK-10 renal = test system: TK-10 renal
HCT-15 colon = test system: HCT-15 colon
SK-OV-3 ovarian = test system: SK-OV-3 ovarian
SW-620 colon = test system: SW-620 colon
SF-295 CNS = test system: SF-295 CNS
HL-60(TB) leukemia = test system: HL-60(TB) leukemia
CCRF-CEM leukemia = test system: CCRF-CEM leukemia
NCI-H460 lung = test system: NCI-H460 lung
OVCAR-5 ovarian = test system: OVCAR-5 ovarian
MOLT-4 leukemia = test system: MOLT-4 leukemia
SN12C renal = test system: SN12C renal
HOP-18 NSCLC = test system: HOP-18 NSCLC
DMS 273 small cell lung = test system: DMS 273 small cell lung

Cc1nc(C(N)=S)sc1C(=O)CC(=O)C(=O)Nc1c(C(C)C)cccc1C(C)C
TGI (LXFL 529 NSCLC): > 100 µM | TGI (SK-MEL-5 melanoma): > 100 µM | TGI (HCT-116 colon): > 100 µM | TGI (K-562 leukemia): > 100 µM | TGI (IGROV1 ovarian): > 100 µM | TGI (UO-31 renal): > 100 µM | TGI (HCC-2998 colon): > 100 µM | TGI (SR leukemia): > 100 µM | TGI (LOX IMVI melanoma): > 100 µM | TGI (SK-MEL-2 melanoma): > 100 µM | TGI (XF 498 CNS): 48.8 µM | TGI (COLO 205 colon): > 100 µM | TGI (SNB-75 CNS): 71.7 µM | TGI (UACC-257 melanoma): > 100 µM | TGI (HOP-62 NSCLC): > 100 µM | TGI (DLD-1 colon): > 100 µM | TGI (ACHN renal): > 100 µM | TGI (RPMI-8226 leukemia): > 100 µM | TGI (NCI-H522 lung): 46.9 µM | TGI (CAKI-1 renal): > 100 µM | TGI (NCI-H226 lung): > 100 µM | TGI (OVCAR-4 ovarian): > 100 µM | TGI (SNB-78 CNS): > 100 µM | TGI (UACC-62 melanoma): > 100 µM | TGI (SNB-19 CNS): > 100 µM | TGI (SF-268 CNS): > 100 µM | TGI (A549 NSCLC): > 100 µM | TGI (A498 renal): > 100 µM | TGI (RXF 393 renal): > 100 µM | TGI (SK-MEL-28 melanoma): > 100 µM | TGI (M19-MEL melanoma): > 100 µM | TGI (OVCAR-8 ovarian): > 100 µM | TGI (786-0 renal): > 100 µM | TGI (HOP-92 NSCLC): 92.9 µM | TGI (NCI-H23 lung): 88.9 µM | TGI (MALME-3M melanoma): > 100 µM | TGI (OVCAR-3 ovarian): 42 µM | TGI (M14 melanoma): > 100 µM | TGI (U251 CNS): > 100 µM | TGI (DMS 114 small cell lung): 64.6 µM | TGI (HT29 colon): > 100 µM | TGI (KM12 colon): > 100 µM | TGI (SF-539 CNS): 86.3 µM | TGI (EKVX NSCLC): > 100 µM | TGI (KM20L2 colon): > 100 µM | TGI (TK-10 renal): > 100 µM | TGI (HCT-15 colon): > 100 µM | TGI (SK-OV-3 ovarian): > 100 µM | TGI (SW-620 colon): > 100 µM | TGI (SF-295 CNS): 85.4 µM | TGI (HL-60(TB) leukemia): > 100 µM | TGI (CCRF-CEM leukemia): > 100 µM | TGI (NCI-H460 lung): > 100 µM | TGI (OVCAR-5 ovarian): > 100 µM | TGI (MOLT-4 leukemia): > 100 µM | TGI (SN12C renal): > 100 µM | TGI (HOP-18 NSCLC): > 100 µM

Cc1cc([N+](=O)[O-])c(C)c2c1[nH]c1ccc(O)cc12
TGI (SK-MEL-5 melanoma): > 100 µM | TGI (HCT-116 colon): > 100 µM | TGI (K-562 leukemia): > 100 µM | TGI (UO-31 renal): > 100 µM | TGI (HCC-2998 colon): > 100 µM | TGI (SR leukemia): > 100 µM | TGI (LOX IMVI melanoma): > 100 µM | TGI (SK-MEL-2 melanoma): > 100 µM | TGI (XF 498 CNS): > 100 µM | TGI (COLO 205 colon): > 100 µM | TGI (SNB-75 CNS): > 100 µM | TGI (UACC-257 melanoma): > 100 µM | TGI (HOP-62 NSCLC): > 100 µM | TGI (DLD-1 colon): 43.7 µM | TGI (ACHN renal): > 100 µM | TGI (RPMI-8226 leukemia): 79 µM | TGI (CAKI-1 renal): > 100 µM | TGI (NCI-H226 lung): > 100 µM | TGI (OVCAR-4 ovarian): > 100 µM | TGI (SNB-78 CNS): > 100 µM | TGI (SNB-19 CNS): > 100 µM | TGI (SF-268 CNS): > 100 µM | TGI (A549 NSCLC): > 100 µM | TGI (SK-MEL-28 melanoma): > 100 µM | TGI (DMS 273 small cell lung): > 100 µM | TGI (M19-MEL melanoma): > 100 µM | TGI (OVCAR-8 ovarian): > 100 µM | TGI (786-0 renal): > 100 µM | TGI (NCI-H23 lung): > 100 µM | TGI (MALME-3M melanoma): > 100 µM | TGI (OVCAR-3 ovarian): > 100 µM | TGI (M14 melanoma): > 100 µM | TGI (DMS 114 small cell lung): > 100 µM | TGI (HT29 colon): > 100 µM | TGI (KM12 colon): > 100 µM | TGI (SF-539 CNS): > 100 µM | TGI (EKVX NSCLC): > 100 µM | TGI (TK-10 renal): > 100 µM | TGI (HCT-15 colon): > 100 µM | TGI (SW-620 colon): > 100 µM | TGI (SF-295 CNS): > 100 µM | TGI (HL-60(TB) leukemia): 63 µM | TGI (CCRF-CEM leukemia): > 100 µM | TGI (NCI-H460 lung): > 100 µM | TGI (OVCAR-5 ovarian): > 100 µM | TGI (MOLT-4 leukemia): > 100 µM | TGI (SN12C renal): > 100 µM | TGI (HOP-18 NSCLC): > 100 µM

Cn1cnc([N+](=O)[O-])c1Sc1nc2ncccc2[nH]1
TGI (LXFL 529 NSCLC): > 100 µM | TGI (SK-MEL-5 melanoma): > 100 µM | TGI (HCT-116 colon): > 100 µM | TGI (K-562 leukemia): > 100 µM | TGI (IGROV1 ovarian): > 100 µM | TGI (UO-31 renal): > 100 µM | TGI (HCC-2998 colon): > 100 µM | TGI (SR leukemia): > 100 µM | TGI (LOX IMVI melanoma): > 100 µM | TGI (XF 498 CNS): > 100 µM | TGI (COLO 205 colon): 56.5 µM | TGI (SNB-75 CNS): > 100 µM | TGI (UACC-257 melanoma): > 100 µM | TGI (HOP-62 NSCLC): > 100 µM | TGI (DLD-1 colon): > 100 µM | TGI (ACHN renal): > 100 µM | TGI (RPMI-8226 leukemia): > 100 µM | TGI (CAKI-1 renal): 85.6 µM | TGI (NCI-H226 lung): > 100 µM | TGI (OVCAR-4 ovarian): > 100 µM | TGI (SNB-78 CNS): > 100 µM | TGI (UACC-62 melanoma): > 100 µM | TGI (SNB-19 CNS): > 100 µM | TGI (SF-268 CNS): > 100 µM | TGI (A549 NSCLC): > 100 µM | TGI (A498 renal): > 100 µM | TGI (RXF 393 renal): > 100 µM | TGI (SK-MEL-28 melanoma): > 100 µM | TGI (OVCAR-8 ovarian): > 100 µM | TGI (786-0 renal): > 100 µM | TGI (HOP-92 NSCLC): > 100 µM | TGI (NCI-H23 lung): > 100 µM | TGI (MALME-3M melanoma): > 100 µM | TGI (OVCAR-3 ovarian): > 100 µM | TGI (M14 melanoma): > 100 µM | TGI (U251 CNS): > 100 µM | TGI (DMS 114 small cell lung): 74.4 µM | TGI (HT29 colon): > 100 µM | TGI (KM12 colon): > 100 µM | TGI (SF-539 CNS): > 100 µM | TGI (EKVX NSCLC): > 100 µM | TGI (KM20L2 colon): > 100 µM | TGI (TK-10 renal): > 100 µM | TGI (HCT-15 colon): > 100 µM | TGI (SK-OV-3 ovarian): > 100 µM | TGI (SW-620 colon): > 100 µM | TGI (SF-295 CNS): > 100 µM | TGI (HL-60(TB) leukemia): 62.6 µM | TGI (CCRF-CEM leukemia): 64.2 µM | TGI (NCI-H460 lung): > 100 µM | TGI (OVCAR-5 ovarian): > 100 µM | TGI (MOLT-4 leukemia): > 100 µM | TGI (SN12C renal): > 100 µM | TGI (HOP-18 NSCLC): > 100 µM
